Test results published in ChEMBL document CHEMBL1130844, “Synthesis and NK1 receptor antagonistic activity of (+/-)-1-acyl-3-(3,4- dichlorophenyl)-3-[2-(spiro-substituted piperidin-1'-yl)ethyl]piperidines” (Bioorg Med Chem Lett, 1998).

How the values were obtained:
[1] = molecular target: Substance-P receptor (Cavia porcellus, UniProt P30547); assay: Neurokinin (NK1) receptor antagonistic activity was evaluated.; assay type: functional
[2] = system: Cavia porcellus; assay: Inhibitory activity of substance P-induced bronchoconstriction in guinea pigs upon intravenous administration was evaluated.; assay type: functional; conditions: read-out: ID50 (the source's name)

Sequence of Substance-P receptor (P30547 whole entry): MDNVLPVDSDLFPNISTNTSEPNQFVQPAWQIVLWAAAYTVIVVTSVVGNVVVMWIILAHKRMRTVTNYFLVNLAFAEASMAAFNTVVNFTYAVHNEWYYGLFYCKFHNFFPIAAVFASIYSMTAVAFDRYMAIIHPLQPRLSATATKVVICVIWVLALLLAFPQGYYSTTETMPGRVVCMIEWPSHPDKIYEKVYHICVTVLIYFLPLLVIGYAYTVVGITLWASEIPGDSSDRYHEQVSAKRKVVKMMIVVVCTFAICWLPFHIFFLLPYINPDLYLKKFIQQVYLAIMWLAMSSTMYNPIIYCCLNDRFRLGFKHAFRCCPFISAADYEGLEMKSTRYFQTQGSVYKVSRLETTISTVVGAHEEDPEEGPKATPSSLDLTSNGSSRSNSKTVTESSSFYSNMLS

SMILES | IC50 [1] [nM] | ED50 [2] [mg/kg]
CC(C)Oc1cccc(CC(=O)N2CCCC(CCN3CCC4(CC3)OCc3ccccc34)(c3ccc(Cl)c(Cl)c3)C2)c1 (configuration not stated) | 16 | –
CC(C)Oc1cccc(CC(=O)N2CCCC(CCN3C4CCC3CC3(C4)OCc4ccccc43)(c3ccc(Cl)c(Cl)c3)C2)c1 (configuration not stated) | 105 | –
CC(C)Oc1cccc(CC(=O)N2CCCC(CCN3CCC4(CC3)NC(=O)Cc3ccccc34)(c3ccc(Cl)c(Cl)c3)C2)c1 (configuration not stated) | 54 | –
CC(C)Oc1cccc(CC(=O)N2CCCC(CC[N+]3(Cc4ccccc4)CCC4(CC3)NCCc3ccccc34)(c3ccc(Cl)c(Cl)c3)C2)c1 (configuration not stated) | 16 | –
CC(C)Oc1cccc(CC(=O)N2CCCC(CC[N+]3(C)CCC4(CC3)NCCc3ccccc34)(c3ccc(Cl)c(Cl)c3)C2)c1.[I-] (configuration not stated) | 2 | 0.049
CC(C)Oc1cccc(CC(=O)N2CCCC(CC[N+]3(C)CCC4(CC3)c3ccccc3C[S+]4[O-])(c3ccc(Cl)c(Cl)c3)C2)c1 (configuration not stated) | 6.3 | –
CC(C)Oc1cccc(CC(=O)N2CCCC(CCN3CCC4(CC3)c3ccccc3C[S+]4[O-])(c3ccc(Cl)c(Cl)c3)C2)c1 (configuration not stated) | 18 | –
CC(C)Oc1cccc(CC(=O)N2CCCC(CCN3CCC4(CC3)NCCc3ccccc34)(c3ccc(Cl)c(Cl)c3)C2)c1 (configuration not stated) | 31 | –
CN(CC(CCN1CCC2(CC1)OCc1ccccc12)c1ccc(Cl)c(Cl)c1)C(=O)c1ccccc1 (configuration not stated) | 710 | –
CN(CC(CCN1CCC2(CC1)NCCc1ccccc12)c1ccc(Cl)c(Cl)c1)C(=O)c1ccccc1 (configuration not stated) | 58 | –
CC[N+]1(CCC2(c3ccc(Cl)c(Cl)c3)CCCN(C(=O)Cc3cccc(OC(C)C)c3)C2)CCC2(CC1)NCCc1ccccc12 (configuration not stated) | 4.8 | –
CC(C)Oc1cccc(CC(=O)N2CCCC(CC[N+]34CCC(c5ccccc5)(CC3)CC4)(c3ccc(Cl)c(Cl)c3)C2)c1.[Cl-] (racemic) | 0.31 | 0.019
CC(C)Oc1cccc(CC(=O)N2CCCC(CC[N+]3(C)CCC4(CC3)NC(=O)Cc3ccccc34)(c3ccc(Cl)c(Cl)c3)C2)c1.[I-] (stereo in doubt; 5ba) | 1.9 | 0.024
CC(C)Oc1cccc(CC(=O)N2CCCC(CC[N+]3(C)CCC4(CC3)NC(=O)Cc3ccccc34)(c3ccc(Cl)c(Cl)c3)C2)c1 (stereo in doubt; 5bb) | 35 | –
